# Test results from article PMC7413254 (Nature Communications, 2020).
# Experiments:
# PfCRT [1] = assay: Potential co-substrates tested for influx of VF-6 via PfCRT into the oocyte; assay type: cell-based, Plasmodium falciparum; set-up: key: X: Compounds that have been tested as potential co-substrates but are not required for influx of VF-6 via PfCRT into the oocyte
# PfCRT [2] = assay: Influx of VF-6 via PfCRT into the oocyte, solutes tested as potential co-substrates; assay type: cell-based, Plasmodium falciparum; set-up: key: X: Compounds that have been tested as potential co-substrates but are not required for influx of VF-6 via PfCRT into the oocyte; settings: X marks the solute
# non-expressing oocytes = assay: cells; assay type: cell-based, Xenopus laevis; settings: total [3H]CQ transport; for Uptake of [3H]CQ (% non-expressing oocyte control), cis-inhibition: non-expressing oocytes, normalised to the oocyte type control; for Uptake of [3H]CQ (% PfCRTDd2 control), cis-inhibition, non-expressing oocytes: mean ± SEM, SEM
# How it was run: (§1)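 Washed oocytes (ten per treatment) were exposed to label in pH 5.5 ND96 for 1.5 h at 27.5 °C. Buffer was then removed, cells rinsed in ice-cold ND96, lysed in SDS and counted.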
# PfNT1 = biological target: T1, PfNT1 (Plasmodium falciparum, UniProt Q8IDM6); assay: cell-based; assay type: cell-based; settings: SEM
# T1 construct: expressed in transfected cells; host or cells: Xenopus laevis oocytes (stage V-VI), cRNA-injected
# How it was run: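 Transport measured in Xenopus oocytes expressing the transporters, 1.5 h at 27.5 °C in ND96 pH 5.5 unless noted. For trans-stimulation, VF-6 injected in 25 nL ND96 at pH 5.0–7.0 or Na^+-free (choline) buffer; intracellular levels based on ~400 nL oocyte volume. Ten oocytes per treatment, ≥4 experiments.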
# PfCRT [3] = assay: Test of solutes as potential co-substrates for influx of VF-6 via PfCRT into the oocyte; assay type: cell-based, Plasmodium falciparum; set-up: key: X: Compounds that have been tested as potential co-substrates but are not required for influx of VF-6 via PfCRT into the oocyte; settings: X = tested
# PfCRT^Ecu1110 = PfCRT^Ecu1110 (Plasmodium falciparum, UniProt Q9N623, A220S/I356L/K76T/N326D); assay: [3H]CQ uptake into Xenopus oocytes, cis-inhibition by unlabelled solute; assay type: cell-based; settings: for Uptake of [3H]CQ (% PfCRTEcu1110 control), cis-inhibition / PfCRT-mediated [3H]CQ transport, cis-inhibition (% PfCRTEcu1110 control): PfCRTEcu1110 oocytes; for Uptake of [3H]CQ (% PfCRTEcu1110 control), cis-inhibition / Uptake of [3H]CQ (% PfCRTDd2 control), cis-inhibition, PfCRTEcu1110: total [3H]CQ transport; for Uptake of [3H]CQ (% PfCRTEcu1110 control), cis-inhibition: normalised to the oocyte type control; for PfCRT-mediated [3H]CQ transport, cis-inhibition (% PfCRTEcu1110 control): background [3H]CQ accumulation subtracted, normalised to oocyte type control; for [3H]CQ transport (% PfCRTEcu1110 control), cis-inhibition, PfCRTEcu1110: PfCRT-mediated component (background subtracted), sheet title says normalised to PfCRTDd2 control; for [3H]CQ transport (% PfCRTEcu1110 control), cis-inhibition, PfCRTEcu1110 / Uptake of [3H]CQ (% PfCRTDd2 control), cis-inhibition, PfCRTEcu1110: mean ± SEM, SEM
# How it was run: as §1
# PfCRT^Dd2 = PfCRT^Dd2 (Plasmodium falciparum, UniProt Q9N623, A220S/I356T/K76T/M74I/N326S/N75E/Q271E/R371I); assay: as above; assay type: cell-based; settings: for PfCRT-mediated [3H]CQ transport, cis-inhibition (% PfCRTDd2 control): PfCRTDd2 oocytes, background [3H]CQ accumulation subtracted, normalised to oocyte type control; for Uptake of [3H]CQ (% PfCRTDd2 control), cis-inhibition, PfCRTDd2: total [3H]CQ transport, mean ± SEM, SEM
# How it was run: as §1
# PfCRT^3D7 = PfCRT^3D7 (Plasmodium falciparum, UniProt Q8IBZ9); assay: cell-based; assay type: cell-based; settings: total [3H]CQ transport; for Uptake of [3H]CQ (% PfCRTDd2 control), cis-inhibition, PfCRT3D7: mean ± SEM, SEM
# Source text: The orientation of PfCRT in the parasite’s DV membrane, and also in the oocyte plasma membrane, is such that its N- and C-termini extend into the cytosol. The oocytes were suspended in a reaction buffer adjusted to pH 5.5 to mimic the pH of the DV lumen[1],[2]. In this scenario, the transport of a substrate via PfCRT from the acidic extracellular solution into the oocyte cytosol[15] is analogous to the parasite’s PfCRT-mediated efflux of a substrate from the acidic DV and into the cytosol. Unless specified otherwise, this is the direction in which substrate transport was measured in the oocyte assays.
# Unless specified otherwise, the transport assays were conducted over 1.5 h at 27.5 °C and the reaction buffer was ND96 (96 mM NaCl, 2 mM KCl, 1 mM MgCl2, 1.8 mM CaCl2, 10 mM MES and 10 mM Tris-base) at pH 5.5.
# Ten oocytes were washed twice with the relevant ND96 buffer. […] The assay was terminated by removing the reaction buffer and washing the oocytes with ice-cold ND96 buffer. The oocytes were lysed in 10% (w/v) sodium dodecyl sulfate (SDS) and the radioactivity accumulated within each oocyte was measured with a MicroBeta^2 microplate liquid scintillation analyser (PerkinElmer).
# At least four independent experiments were performed (on different days and using oocytes from different frogs), and within each experiment measurements were made from ten oocytes per treatment.
# Chain of PfCRT^Dd2 (Q9N623 whole entry A220S/I356T/K76T/M74I/N326S/N75E/Q271E/R371I): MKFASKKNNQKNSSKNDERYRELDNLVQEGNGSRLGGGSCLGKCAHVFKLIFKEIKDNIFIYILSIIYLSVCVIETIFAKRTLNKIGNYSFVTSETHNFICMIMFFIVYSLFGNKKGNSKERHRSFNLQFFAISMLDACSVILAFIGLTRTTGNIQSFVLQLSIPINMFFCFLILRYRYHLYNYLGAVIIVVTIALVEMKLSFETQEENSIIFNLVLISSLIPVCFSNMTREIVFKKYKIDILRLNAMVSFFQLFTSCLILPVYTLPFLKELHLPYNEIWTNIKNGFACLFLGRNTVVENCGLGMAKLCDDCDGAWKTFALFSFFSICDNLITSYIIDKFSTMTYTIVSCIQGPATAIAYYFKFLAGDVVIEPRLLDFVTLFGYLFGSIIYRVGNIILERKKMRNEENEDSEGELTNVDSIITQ
# Chain of PfCRT^Ecu1110 (Q9N623 whole entry A220S/I356L/K76T/N326D): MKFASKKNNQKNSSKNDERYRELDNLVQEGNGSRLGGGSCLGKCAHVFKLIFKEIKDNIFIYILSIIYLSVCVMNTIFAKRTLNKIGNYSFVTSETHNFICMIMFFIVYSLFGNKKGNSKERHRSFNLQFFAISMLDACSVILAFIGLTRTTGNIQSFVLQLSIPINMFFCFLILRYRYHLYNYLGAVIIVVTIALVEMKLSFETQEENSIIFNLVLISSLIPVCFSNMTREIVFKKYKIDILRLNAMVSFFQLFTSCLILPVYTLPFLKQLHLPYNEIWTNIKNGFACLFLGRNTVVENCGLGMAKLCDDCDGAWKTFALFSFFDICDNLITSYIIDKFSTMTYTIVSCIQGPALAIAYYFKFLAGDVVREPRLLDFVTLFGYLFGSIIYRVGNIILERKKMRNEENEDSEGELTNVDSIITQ
# Chain of PfCRT^3D7 (Q8IBZ9 59-398): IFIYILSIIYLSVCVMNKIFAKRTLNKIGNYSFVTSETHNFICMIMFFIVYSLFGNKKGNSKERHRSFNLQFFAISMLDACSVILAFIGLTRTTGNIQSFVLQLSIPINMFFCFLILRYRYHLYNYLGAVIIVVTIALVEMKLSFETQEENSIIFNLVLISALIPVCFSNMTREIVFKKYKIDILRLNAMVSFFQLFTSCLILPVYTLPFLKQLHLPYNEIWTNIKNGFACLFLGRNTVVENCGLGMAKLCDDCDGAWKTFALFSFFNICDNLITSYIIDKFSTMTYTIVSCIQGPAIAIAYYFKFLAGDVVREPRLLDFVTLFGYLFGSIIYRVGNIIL
# T1 sequence (Q8IDM6 whole entry): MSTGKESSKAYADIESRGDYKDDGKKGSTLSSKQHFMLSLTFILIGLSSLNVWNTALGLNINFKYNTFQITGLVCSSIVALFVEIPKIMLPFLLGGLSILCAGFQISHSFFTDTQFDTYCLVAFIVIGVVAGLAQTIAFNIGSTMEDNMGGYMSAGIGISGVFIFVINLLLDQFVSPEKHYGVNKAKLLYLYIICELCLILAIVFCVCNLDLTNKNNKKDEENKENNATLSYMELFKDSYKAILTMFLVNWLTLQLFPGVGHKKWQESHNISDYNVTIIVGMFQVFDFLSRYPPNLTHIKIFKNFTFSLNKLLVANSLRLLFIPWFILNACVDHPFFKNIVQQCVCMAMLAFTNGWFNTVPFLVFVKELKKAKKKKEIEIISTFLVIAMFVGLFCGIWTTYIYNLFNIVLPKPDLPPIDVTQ
smiles,measurement,setting,value
N[C@@H](CC(=O)O)C(=O)O [L-aspartatic acid],Tested as potential co-substrate but not required for influx of VF-6 via PfCRT into the oocyte,PfCRT [1],X
same,Compounds that have been tested as potential co-substrates but are not required for influx of VF-6 via PfCRT into the oocyte,PfCRT [2],X
same,"Uptake of [3H]CQ (% non-expressing oocyte control), cis-inhibition",non-expressing oocytes; [test solute] = 0.5 mM,101 ± 4.8 % non-expressing oocyte control
same,"Uptake of [3H]CQ (% non-expressing oocyte control), cis-inhibition",non-expressing oocytes; [test solute] = 1 mM,97 ± 6.3 % non-expressing oocyte control
same,"Uptake of [3H]CQ (% non-expressing oocyte control), cis-inhibition",non-expressing oocytes; [test solute] = 2 mM,100 ± 4.6 % non-expressing oocyte control
same,"Uptake of [3H]CQ (% PfCRTDd2 control), cis-inhibition, non-expressing oocytes",non-expressing oocytes; [test solute] = 0.5 mM,3.9 ± 0.03 % PfCRTDd2 control
same,"Uptake of [3H]CQ (% PfCRTDd2 control), cis-inhibition, non-expressing oocytes",non-expressing oocytes; [test solute] = 1 mM,3.2 ± 0.08 % PfCRTDd2 control
same,"Uptake of [3H]CQ (% PfCRTDd2 control), cis-inhibition, non-expressing oocytes",non-expressing oocytes; [test solute] = 2 mM,3.4 ± 0.1 % PfCRTDd2 control
same,"Uptake of [3H]CQ (% PfCRTDd2 control), trans-stimulation, PfNT1",PfNT1,2.4 ± 0.08 % PfCRTDd2 control
same,Tested as potential co-substrate but not required for influx of VF-6 via PfCRT into the oocyte,PfCRT [3],X
same,"Uptake of [3H]CQ (% PfCRTEcu1110 control), cis-inhibition",PfCRT^Ecu1110; [test solute] = 0.5 mM,94 ± 4.5 % PfCRTEcu1110 control
same,"Uptake of [3H]CQ (% PfCRTEcu1110 control), cis-inhibition",PfCRT^Ecu1110; [test solute] = 1 mM,90 ± 3.6 % PfCRTEcu1110 control
same,"Uptake of [3H]CQ (% PfCRTEcu1110 control), cis-inhibition",PfCRT^Ecu1110; [test solute] = 2 mM,83 ± 4.3 % PfCRTEcu1110 control
same,"PfCRT-mediated [3H]CQ transport, cis-inhibition (% PfCRTEcu1110 control)",PfCRT^Ecu1110; [test solute] = 0.5 mM,92 ± 1.4 % PfCRTEcu1110 control
same,"PfCRT-mediated [3H]CQ transport, cis-inhibition (% PfCRTEcu1110 control)",PfCRT^Ecu1110; [test solute] = 1 mM,88 ± 2.7 % PfCRTEcu1110 control
same,"PfCRT-mediated [3H]CQ transport, cis-inhibition (% PfCRTEcu1110 control)",PfCRT^Ecu1110; [test solute] = 2 mM,80 ± 1.3 % PfCRTEcu1110 control
same,"[3H]CQ transport (% PfCRTEcu1110 control), cis-inhibition, PfCRTEcu1110",PfCRT^Ecu1110; [test solute] = 0.5 mM,28 ± 0.7 % PfCRTEcu1110 control
same,"[3H]CQ transport (% PfCRTEcu1110 control), cis-inhibition, PfCRTEcu1110",PfCRT^Ecu1110; [test solute] = 2 mM,24 ± 0.1 % PfCRTEcu1110 control
same,"Uptake of [3H]CQ (% PfCRTDd2 control), cis-inhibition, PfCRTEcu1110",PfCRT^Ecu1110; [test solute] = 0.5 mM,31 ± 1.5 % PfCRTDd2 control
same,"Uptake of [3H]CQ (% PfCRTDd2 control), cis-inhibition, PfCRTEcu1110",PfCRT^Ecu1110; [test solute] = 1 mM,30 ± 1.4 % PfCRTDd2 control
same,"Uptake of [3H]CQ (% PfCRTDd2 control), cis-inhibition, PfCRTEcu1110",PfCRT^Ecu1110; [test solute] = 2 mM,27 ± 1.0 % PfCRTDd2 control
same,"PfCRT-mediated [3H]CQ transport, cis-inhibition (% PfCRTDd2 control)",PfCRT^Dd2; [test solute] = 0.5 mM,90 ± 5.7 % PfCRTDd2 control
same,"PfCRT-mediated [3H]CQ transport, cis-inhibition (% PfCRTDd2 control)",PfCRT^Dd2; [test solute] = 1 mM,87 ± 6.1 % PfCRTDd2 control
same,"PfCRT-mediated [3H]CQ transport, cis-inhibition (% PfCRTDd2 control)",PfCRT^Dd2; [test solute] = 2 mM,73 ± 3.7 % PfCRTDd2 control
same,"Uptake of [3H]CQ (% PfCRTDd2 control), cis-inhibition, PfCRTDd2",PfCRT^Dd2; [test solute] = 0.5 mM,93 ± 3.6 % PfCRTDd2 control
same,"Uptake of [3H]CQ (% PfCRTDd2 control), cis-inhibition, PfCRTDd2",PfCRT^Dd2; [test solute] = 1 mM,89 ± 5.2 % PfCRTDd2 control
same,"Uptake of [3H]CQ (% PfCRTDd2 control), cis-inhibition, PfCRTDd2",PfCRT^Dd2; [test solute] = 2 mM,75 ± 4.6 % PfCRTDd2 control
same,"Uptake of [3H]CQ (% PfCRT3D7 control), cis-inhibition","PfCRT^3D7; PfCRT3D7 oocytes, [test solute] = 2 mM, normalised to the oocyte type control",100 ± 3.5 % PfCRT3D7 control
same,"Uptake of [3H]CQ (% PfCRTDd2 control), cis-inhibition, PfCRT3D7",PfCRT^3D7; [test solute] = 0.5 mM,3.1 ± 0.07 % PfCRTDd2 control
same,"Uptake of [3H]CQ (% PfCRTDd2 control), cis-inhibition, PfCRT3D7",PfCRT^3D7; [test solute] = 1 mM,2.6 ± 0.08 % PfCRTDd2 control
same,"Uptake of [3H]CQ (% PfCRTDd2 control), cis-inhibition, PfCRT3D7",PfCRT^3D7; [test solute] = 2 mM,2.2 ± 0.06 % PfCRTDd2 control
